# Assay: Calcium liability (tolerance test in mice)
# Format: in vivo
# Conditions: mice (25-30 g), daily subcutaneous administration for 4 consecutive days; dose giving zero weight gain over the 5-day treatment period
# Excerpt: Calcium Liability (Tolerance Test in Mice):
# This test gives a global picture of calcemic liability. Profound changes in calcium homeostasis strongly affect the weight development of the animals. This parameter was used as a primary test for tolerance. Mice (25-30 g body weight) received daily subcutaneous administrations of the vitamin D derivative for 4 consecutive days. Body weight was registered just before and at the end of a 5-day treatment period. The “highest tolerated dose” (HTDsc) in mice is the dose which results in zero weight gain during this treatment period.
structure (smiles),measurement,value
C=C1/C(=C\C=C2/CCC[C@]3(C)[C@@H]([C@H](C)CCCC(C)(C)O)CC[C@@H]23)C[C@@H](O)C[C@@H]1O [calcitriol],HTDs.c. highest tolerated dose without weight loss,1 µg/kg
